Reference: PubChem BioAssay AID1963847 (Molecular Pharmacology Branch, DTP, NCI, 2024)

System: 415267-285-R-J2-PDC complex spheroid viability
Experiment: Anticancer human tumor 415267-285-R-J2-PDC patient-derived breast carcinoma cell line growth inhibition [POLQ]
Conditions: for IC50: curve of first compound; for viability, T/C: stronger effect = lower value
How it was run: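 Growth inhibition in 3D: complex spheroids (tumor PDC, HUVEC, MSC) treated with POLQ inhibitor combinations; where Cmax unknown, highest tested concentration 10 microM, except SN-38 at 1 microM.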

[1] = second compound 0.0316 µM, first compound 0.0316 µM
[2] = second compound 0.0316 µM, first compound 0.1 µM
[3] = second compound 0.0316 µM, first compound 0.316 µM
[4] = second compound 0.0316 µM, first compound 1 µM
[5] = second compound 0.0316 µM, first compound 3.16 µM
[6] = second compound 0.0316 µM, first compound 10 µM
[7] = second compound 0.1 µM, first compound 0.0316 µM
[8] = second compound 0.1 µM, first compound 0.1 µM
[9] = second compound 0.1 µM, first compound 0.316 µM
[10] = second compound 0.1 µM, first compound 1 µM
[11] = second compound 0.1 µM, first compound 3.16 µM
[12] = second compound 0.1 µM, first compound 10 µM
[13] = second compound 0.316 µM, first compound 0.0316 µM
[14] = second compound 0.316 µM, first compound 0.1 µM
[15] = second compound 0.316 µM, first compound 0.316 µM
[16] = second compound 0.316 µM, first compound 1 µM
[17] = second compound 0.316 µM, first compound 3.16 µM
[18] = second compound 0.316 µM, first compound 10 µM
[19] = second compound 1 µM, first compound 0.0316 µM
[20] = second compound 1 µM, first compound 0.1 µM
[21] = second compound 1 µM, first compound 0.316 µM
[22] = second compound 1 µM, first compound 1 µM
[23] = second compound 1 µM, first compound 3.16 µM
[24] = second compound 1 µM, first compound 10 µM
[25] = second compound 3.16 µM, first compound 0.0316 µM
[26] = second compound 3.16 µM, first compound 0.1 µM
[27] = second compound 3.16 µM, first compound 0.316 µM
[28] = second compound 3.16 µM, first compound 1 µM
[29] = second compound 3.16 µM, first compound 3.16 µM
[30] = second compound 3.16 µM, first compound 10 µM
[31] = second compound 10 µM, first compound 0.0316 µM
[32] = second compound 10 µM, first compound 0.1 µM
[33] = second compound 10 µM, first compound 0.316 µM
[34] = second compound 10 µM, first compound 1 µM
[35] = second compound 10 µM, first compound 3.16 µM
[36] = second compound 10 µM, first compound 10 µM
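Note: spheroids exposed to compounds for one week before readout.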
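Throughout, for viability, T/C: luminescence used as stand-in measure of viable cells; 100% = DMSO vehicle control viability.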

`COc1cc2cc(C(=O)CCC(=O)O)sc2cc1OC` + Cc1cccc(N(C)C(=O)C2C(O)CCN2c2nc(C)cc(C(F)(F)F)c2C#N)c1 showed an IC50 (second compound 0.0316 µM) greater than 10 µM, an IC50 (second compound 0.1 µM) greater than 10 µM and an IC50 (second compound 0.316 µM) greater than 10 µM. It also gave an IC50 (second compound 1 µM) greater than 10 µM, an IC50 (second compound 3.16 µM) greater than 10 µM and an IC50 (second compound 10 µM) greater than 10 µM. For the same molecule, the viability, T/C [1] was 101%, the viability, T/C [2] was 103% and the viability, T/C [3] was 101%. It also gave a viability, T/C [4] of 104%, a viability, T/C [5] of 116% and a viability, T/C [6] of 99%. For the same molecule, the viability, T/C [7] was 103%, the viability, T/C [8] was 98.7% and the viability, T/C [9] was 98.7%. It also gave a viability, T/C [10] of 102%, a viability, T/C [11] of 100% and a viability, T/C [12] of 101%. For the same molecule, the viability, T/C [13] was 99.7%, the viability, T/C [14] was 107% and the viability, T/C [15] was 101%. For the same molecule, the viability, T/C [16] was 104%, the viability, T/C [17] was 91.5% and the viability, T/C [18] was 109%. The viability, T/C [19] was 111%, the viability, T/C [20] was 101% and the viability, T/C [21] was 95.3%. For the same molecule, the viability, T/C [22] was 103%, the viability, T/C [23] was 100% and the viability, T/C [24] was 100%. It also gave a viability, T/C [25] of 110%, a viability, T/C [26] of 112% and a viability, T/C [27] of 99.1%. The viability, T/C [28] was 102%, the viability, T/C [29] was 97.3% and the viability, T/C [30] was 115%. The viability, T/C [31] was 98.8%, the viability, T/C [32] was 112% and the viability, T/C [33] was 109%. The viability, T/C [34] was 105%, the viability, T/C [35] was 103% and the viability, T/C [36] was 109%.
Work on `O=C(Nc1ccc(O)c(NS(=O)(=O)c2ccc(F)cc2)c1)c1ccc(-c2ccccc2)cc1` + Cc1cccc(N(C)C(=O)C2C(O)CCN2c2nc(C)cc(C(F)(F)F)c2C#N)c1 yielded an IC50 (second compound 0.0316 µM) greater than 10 µM, an IC50 (second compound 0.1 µM) greater than 10 µM and an IC50 (second compound 0.316 µM) greater than 10 µM. It also gave an IC50 (second compound 1 µM) greater than 10 µM, an IC50 (second compound 3.16 µM) greater than 10 µM and an IC50 (second compound 10 µM) greater than 10 µM. It also gave a viability, T/C [1] of 112%, a viability, T/C [2] of 120% and a viability, T/C [3] of 105%. It also gave a viability, T/C [4] of 106%, a viability, T/C [5] of 101% and a viability, T/C [6] of 63.4%. The viability, T/C [7] was 98.5%, the viability, T/C [8] was 101% and the viability, T/C [9] was 100%. It also gave a viability, T/C [10] of 104%, a viability, T/C [11] of 100% and a viability, T/C [12] of 62.7%. For the same molecule, the viability, T/C [13] was 109%, the viability, T/C [14] was 94.3% and the viability, T/C [15] was 93.3%. For the same molecule, the viability, T/C [16] was 101%, the viability, T/C [17] was 102% and the viability, T/C [18] was 66.9%. For the same molecule, the viability, T/C [19] was 115%, the viability, T/C [20] was 95.5% and the viability, T/C [21] was 109%. For the same molecule, the viability, T/C [22] was 103%, the viability, T/C [23] was 103% and the viability, T/C [24] was 63.3%. It also gave a viability, T/C [25] of 99.2%, a viability, T/C [26] of 106% and a viability, T/C [27] of 113%. It also gave a viability, T/C [28] of 99.3%, a viability, T/C [29] of 94.2% and a viability, T/C [30] of 71.6%. It also gave a viability, T/C [31] of 98.1%, a viability, T/C [32] of 106% and a viability, T/C [33] of 114%. For the same molecule, the viability, T/C [34] was 106%, the viability, T/C [35] was 95.3% and the viability, T/C [36] was 61.7%.
With `COc1cccc2c1C(=O)c1c(O)c3c(c(O)c1C2=O)CC(O)(C(=O)CO)CC3OC1CC(N)C(O)C(C)O1` (stereo unspecified) + Nc1ccc(C#CCN(C(=O)Cc2ncc(C(F)(F)F)cc2C(F)(F)F)c2ccc(F)cc2)nn1 the IC50 (second compound 0.0316 µM) was 0.0557 µM, the IC50 (second compound 0.1 µM) was 0.0546 µM and the IC50 (second compound 0.316 µM) was 0.0579 µM. The IC50 (second compound 1 µM) was 0.05 µM, the IC50 (second compound 3.16 µM) was 0.0495 µM and the IC50 (second compound 10 µM) was less than 0.0316 µM. It also gave a viability, T/C [1] of 81.1%, a viability, T/C [2] of 18% and a viability, T/C [3] of 4.33%. It also gave a viability, T/C [4] of 0.75%, a viability, T/C [5] of 1.29% and a viability, T/C [6] of 3.55%. It also gave a viability, T/C [7] of 80.9%, a viability, T/C [8] of 15.8% and a viability, T/C [9] of 3.25%. It also gave a viability, T/C [10] of 0.65%, a viability, T/C [11] of 0.93% and a viability, T/C [12] of 3.6%. The viability, T/C [13] was 80.6%, the viability, T/C [14] was 22.5% and the viability, T/C [15] was 3.28%. It also gave a viability, T/C [16] of 0.8%, a viability, T/C [17] of 1.04% and a viability, T/C [18] of 3.39%. It also gave a viability, T/C [19] of 76.9%, a viability, T/C [20] of 9.51% and a viability, T/C [21] of 3.66%. It also gave a viability, T/C [22] of 0.83%, a viability, T/C [23] of 1.07% and a viability, T/C [24] of 4.04%. It also gave a viability, T/C [25] of 73.7%, a viability, T/C [26] of 13% and a viability, T/C [27] of 4.28%. For the same molecule, the viability, T/C [28] was 1.36%, the viability, T/C [29] was 1.16% and the viability, T/C [30] was 3.92%. It also gave a viability, T/C [31] of 49.4%, a viability, T/C [32] of 9.57% and a viability, T/C [33] of 4.23%. It also gave a viability, T/C [34] of 1.37%, a viability, T/C [35] of 1.54% and a viability, T/C [36] of 4.35%.
